Laboratory results from patent US11666559B2, “Spiro-lactam compounds, process and uses thereof” (UNIVERSIDADE DE COIMBRA, priority 2017, dated 2023).
Like-named read-outs stand apart in the source and are kept apart here.

Key:
[1] = tested on: TZM-bl cells; test: Cellular viability assay (alamarBlue) in TZM-bl cells
Excerpt: In an embodiment, the cellular cytotoxicity of 17 spiro-β-lactams was investigated in TZM-bl cells using the AlamarBlue assay as recommended by the manufacturer (Invitrogen, USA). TZM-bl, previously designated JC53-bl (clone 13) is a HeLa cell line. The parental cell line (JC.53) stably expresses large amounts of CD4, CCR5 and CXCR4. The TZM-bl cell line was generated from JC.53 cells by introducing separate integrated copies of the luciferase and […] genes under control of the HIV-1 promoter. The TZM-bl cell line is highly sensitive to infection with diverse isolates of HIV.
In an embodiment, the cellular viability assay was carried out as follows: the potential in vitro cytotoxicity of all BSS compounds was evaluated in TZM-bl cells. TZM-bl cells (10000 cells/well in 96-well plates) were incubated in absence or presence of serial-two-fold dilutions of the compounds in growth medium (GM), with starting concentration of 100 μg/ml and a final concentration of 0.781 μg/ml. After 48 hours, cell viability was examined with alamarBlue reagent (Invitrogen, USA) according to manufacturer's instructions. Briefly, 10 μl of alamarBlue reagent was added to each well. After 4 hours at 37° C., the fluorescence was measured in Tecan Infinite M200 (excitation wavelength 550 nm and emission wavelength 600 nm).
In an embodiment, at least two independent experiments have been performed for each cytotoxicity analysis.
In an embodiment, for each assay there were medium controls (only growth medium), cell controls (cells without test compound) and cytotoxicity controls (a compound that kill cells—SDS).

[2] = tested on: P. berghei liver stages; test: In vitro activity against the liver stage of Plasmodium infection (luciferase assay in Huh7 cells); type: cell-based, Plasmodium berghei; conditions: P. berghei liver stages in Huh7 cells
Method: FIG. 6: Compound activity against P. berghei liver stages. Anti-Plasmodial activity (infection axis, bars) and toxicity to hepatoma cells (cell confluency axis, circles) are shown. Infection loads of Huh7 cells, a human hepatoma cell line, were determined by bioluminescence measurements of cell lysates 48 h after infection with luciferase-expressing P. berghei parasites. Luciferase assay in 96 well-plate; 10 000 Huh7 cells/well+10 000 PbA-LuciGFPcon spz/well.
In an embodiment, the in vitro activity against the liver stage of Plasmodium infection was also carried out: inhibition of liver stage Plasmodium infection by test compounds was determined by measuring the luminescence intensity in Huh-7 cells infected with a firefly luciferase-expressing P. berghei line, as previously described. Briefly, Huh-7 cells, a human hepatoma cell line, were cultured in 1640 RPMI medium supplemented with 10% v/v fetal bovine serum, 1% v/v nonessential amino acids, 1% v/v penicillin/streptomycin, 1% v/v glutamine, and 10 mM 4-(2-hydroxyethyl)-1-piperazineethanesulfonic acid (HEPES), pH 7, and maintained at 37° C. with 5% CO2. For infection assays, Huh-7 cells (1.0×10^4 per well) were seeded in 96-well plates the day before drug treatment and infection. The medium was replaced by medium containing the appropriate concentration of each compound approximately 1 h prior to infection with sporozoites freshly obtained through disruption of salivary glands of infected female Anopheles stephensi mosquitoes. Sporozoite addition was followed by centrifugation at 1700×g for 5 min. Parasite infection load was measured 48 h after infection by a bioluminescence assay (Biotium). The effect of the compounds on the viability of Huh-7 cells was assessed by the AlamarBlue assay (Invitrogen, U.K.) using the manufacturer's protocol.

[3] = tested on: HIV; test: Anti-HIV activity evaluation (HIV type not specified); type: cell-based
Method: (§1) In an embodiment, TZM-bl cells (AIDS Research and Reference Reagent Program, National Institutes of Health, USA) were cultured in complete growth medium that consists of Dulbecco's minimal essential medium (DMEM) supplemented with 10% fetal bovine serum (FBS), 100 U/ml of penicillin-streptomycin (Gibco/Invitrogen, USA), 1 mM of sodium pyruvate (Gibco/Invitrogen, USA), 2 mM of L-glutamine (Gibco/Invitrogen, USA) and 1 mM of non-essential amino acids (Gibco/Invitrogen, USA).
(§2) In an embodiment, the primary isolates 93AOHDC249, 93AOHDC250, 01PTHDECJN and 03PTHCC9, used in this study were previously isolated, titrated and characterized for co-receptor usage. HIV reference strain SG3.1 was obtained by transfection of HEK293T cells with pSG3.1 (HIV-1) plasmid using Fugene 6 reagent (Roche, Switzerland) according to manufacturer's instructions.
(§3) In an embodiment, the 50% tissue culture infectious dose (TCID50) of the virus was determined in a single-round viral infectivity assay using a luciferase reporter gene assay in TZM-bl cells and calculated using the statistical method of Reed and Muench^27.
In an embodiment, the antiviral activity of the compounds was determined in a single-round assay with TZM-bl cells as previously described ^26. […] After 48 h of infection, luciferase expression was quantified with the One-Glow luciferase assay substrate reagent (Promega, USA) according to manufacturer's instructions. […] After an incubation of 3 minutes at room temperature to allow complete cell lysis luminescence was measured in Tecan Infinite M200. Background luminescence was measured by using control wells that contained only target cells and GM. […]
In an embodiment, dose-response curves were estimated from the percentage of inhibition of infection (y-axis) against logo of concentration of each compound (x-axis) using the sigmoidal dose-response equation (variable slope) in GraphPad Prism version 5.00 for Windows (GraphPad Software, San Diego Calif. USA, www.graphpad.com). IC50 and IC90 values were determined from this curve. […]

[4] = tested on: Escherichia coli ATCC 10536; test: Anti-bacterial activity, agar diffusion method; type: cell-based; conditions: at the concentration of 1 mg/ml
Method: (§4) In an embodiment, anti-bacterial activity of the compounds now disclosed was determined according to CLSI guidelines. The following bacteria were used: reference strains E. coli ATCC 10536, Staphylococcus aureus ATCC 6538, Bacillus subtilis ATCC 6633 and Enterococcus faecalis ATCC 29212; clinical strains of E. coli and Pseudomonas aeruginosa isolated in our laboratory; and strains of Lactobacillus rhamnosus and Lactobacillus plantarum also isolated in our laboratory. The Minimum Inhibitory Concentration (MIC) was determined by the agar diffusion method, in plates of Mueller-Hinton agar or Rogosa agar (for Lactobacilli). Briefly, 10^8 cfu/ml bacterial suspensions were prepared in sterile water and spread in the culture media. Sterile disks containing different concentrations of P3 were placed on the inoculated surface. Plates were incubated at 37° C. for 24 h or 48 h. Lactobacilli were incubated at microaerophilic conditions. A negative control made of sterile water was used. Disks of amoxicillin and imipenem were used as positive controls.

[5] = tested on: Enterococcus faecalis ATCC 29212; test: Anti-bacterial activity, agar diffusion method; type: cell-based; conditions: at the concentration of 1 mg/ml
Method: as §4

[6] = tested on: Escherichia coli (Clinical strain); test: Anti-bacterial activity, agar diffusion method; type: cell-based; conditions: at the concentration of 1 mg/ml
Method: as §4

[7] = tested on: Lactobacillus plantarum; test: Anti-bacterial activity, agar diffusion method; type: cell-based; conditions: at the concentration of 1 mg/ml
Method: as §4

[8] = tested on: Staphylococcus aureus ATCC 6538; test: Anti-bacterial activity, agar diffusion method; type: cell-based; conditions: at the concentration of 1 mg/ml
Method: as §4

[9] = tested on: Lactobacillus rhamnosus; test: Anti-bacterial activity, agar diffusion method; type: cell-based; conditions: at the concentration of 1 mg/ml
Method: as §4

[10] = tested on: Pseudomonas aeruginosa (Clinical strain); test: Anti-bacterial activity, agar diffusion method; type: cell-based; conditions: at the concentration of 1 mg/ml
Method: as §4

[11] = tested on: Bacillus subtillis ATCC 6633; test: Anti-bacterial activity, agar diffusion method; type: cell-based, Bacillus subtilis; conditions: at the concentration of 1 mg/ml
Method: as §4

[12] = tested on: HIV-1; conditions: for IC50 / IC90: TZM-bl cells
Method: as §1, §2, §3
(§5) In an embodiment, the antiviral activity of the compounds was determined in a single-round assay with TZM-bl cells as previously described ^26. Cells were infected with 200 TCID50 of virus in the presence of serial fold dilutions of the BSS compounds in GM, supplemented with DEAE-dextran (19.7 μg/ml). After 48 h of infection, luciferase expression was quantified with the One-Glow luciferase assay substrate reagent (Promega, USA) according to manufacturer's instructions. Briefly, a volume of reagent equal to that of the culture medium in each well was added. For 96-well plates, typically 100 μl of reagent is added to the cells grown in 100 μl of medium. After an incubation of 3 minutes at room temperature to allow complete cell lysis luminescence was measured in Tecan Infinite M200. Background luminescence was measured by using control wells that contained only target cells and GM. Maraviroc (CCR5 antagonist), T1249 (fusion inhibitor) and AMD3100 (CXCR4 antagonist) were used as positive controls of the antiviral activity. At least two independent experiments were performed for each analysis and each assay was set up in triplicate wells.
(§6) In an embodiment, dose-response curves were estimated from the percentage of inhibition of infection (y-axis) against logo of concentration of each compound (x-axis) using the sigmoidal dose-response equation (variable slope) in GraphPad Prism version 5.00 for Windows (GraphPad Software, San Diego Calif. USA, www.graphpad.com). IC50 and IC90 values were determined from this curve. IC50 and IC90 values correspond to the concentration of compound that inhibits viral replication in 50% and 90%, respectively.

[13] = tested on: HIV-2
Method: as §1, §2, §3, §5, §6

[14] = 93AOHDC249, CCR5 tropic HIV-1 primary isolate
[15] = SG3.1, CXCR4 tropic HIV-1 adapted isolate
[16] = 03PTHCC19, CCR5 tropic HIV-2 isolate, TZM-bl cells, wa = without antiviral activity

CC(=O)C1C(C)C=C(C(=O)OCc2ccccc2)C12C(=O)N1[C@@H](C(=O)OC(c3ccccc3)c3ccccc3)C(C)(C)S[C@@H]12 (some centres unmarked) [BSS-794B]
CC50 [1]: 49 µM

CC1(C)S[C@H]2N(C(=O)C23C(C(=O)c2ccccc2)N=NC3c2ccccc2)[C@H]1C(=O)OC(c1ccccc1)c1ccccc1 (some centres unmarked) [BSS-971S]
CC50 [1]: 82 µM

CC(=O)C1=NNC(c2ccccc2)C12C(=O)N1[C@@H](C(=O)OC(c3ccccc3)c3ccccc3)C(C)(C)S[C@@H]12 (some centres unmarked) [BSS-974C]
CC50 [1]: 80.8 µM

COC(=O)C1=C(C(=O)OC)[C@@]2(N=N1)C(=O)N1[C@@H](C(=O)OC(c3ccccc3)c3ccccc3)C(C)(C)S[C@@H]12 [BSS-1026]
anti-Plasmodium activity (in words) [2]: did not display anti-Plasmodium activity
CC50 [1]: 82 µM
anti-HIV activity (in words) [3]: non-active

CC(=O)C1C(C(=O)OCc2ccccc2)=CCC12C(=O)N1[C@@H](C(=O)OC(c3ccccc3)c3ccccc3)C(C)(C)S[C@@H]12 (some centres unmarked) [BSS-793B]
CC50 [1]: 47.7 µM

CC(=O)C1=NNC2(C1)C(=O)N1C(C(=O)O)C(C)(C)SC12 (centres unmarked) [BSS-591, Spiro[penicillanic-6,5′-(3-acetyl-2-pyrazoline)] acid]
CC50 [1]: 164 µM
inhibitory activity [4]: no inhibitory activity
inhibitory activity [5]: no inhibitory activity
inhibitory activity [6]: no inhibitory activity
inhibitory activity [7]: no inhibitory activity
inhibitory activity [8]: no inhibitory activity
inhibitory activity [9]: no inhibitory activity
inhibitory activity [10]: no inhibitory activity
inhibitory activity [11]: no inhibitory activity

COC(=O)C1=C(C(=O)OC)[C@@]2(N=N1)C(=O)N1[C@@H](C(=O)O)C(C)(C)S[C@@H]12 [BSS-587, (2,3′R,5R)-4′,5′-bis(methoxycarbonyl)-3,3-dimethyl-7-oxo-4-thia-1-azaspiro[bicyclo[3.2.0]heptane-6,3′-pyrazole]-2-carboxylic acid]
CC50 ([1]; Table 2, TZM-bl cells, 48 hours, alamarBlue): 136 µM
inhibitory activity [4]: no inhibitory activity
inhibitory activity [5]: no inhibitory activity
inhibitory activity [6]: no inhibitory activity
inhibitory activity [7]: no inhibitory activity
inhibitory activity [8]: no inhibitory activity
inhibitory activity [9]: no inhibitory activity
inhibitory activity [10]: no inhibitory activity
inhibitory activity [11]: no inhibitory activity

CCOC(=O)C1=NNC2(C1)C(=O)N1C(C(=O)O)C(C)(C)SC12 (centres unmarked) [BSS-597, Spiro[penicillanic-6,5′-(3-ethoxycarbonyl-2-pyrazoline)] acid]
CC50 [1]: 152 µM
inhibitory activity [4]: no inhibitory activity
inhibitory activity [5]: no inhibitory activity
inhibitory activity [6]: no inhibitory activity
inhibitory activity [7]: no inhibitory activity
inhibitory activity [8]: no inhibitory activity
inhibitory activity [9]: no inhibitory activity
inhibitory activity [10]: no inhibitory activity
inhibitory activity [11]: no inhibitory activity

COC(=O)C1=C[C@@]2(N=N1)C(=O)N1[C@@H](C(=O)OC(c3ccccc3)c3ccccc3)C(C)(C)S[C@@H]12 [BSS-452]
anti-Plasmodium activity (in words) [2]: did not display anti-Plasmodium activity
CC50 [1]: 105 µM
anti-HIV activity (in words) [3]: non-active

CC(C)(C)OC(=O)C1=NNC(c2ccccc2)C12C(=O)N1[C@@H](C(=O)OC(c3ccccc3)c3ccccc3)C(C)(C)S[C@@H]12 (some centres unmarked) [BSS-973C]
CC50 [1]: 79.8 µM

COC(=O)C1C(C(=O)OCc2ccccc2)=CCC12C(=O)N1[C@@H](C(=O)OC(c3ccccc3)c3ccccc3)C(C)(C)S[C@@H]12 (some centres unmarked) [BSS-722A]
anti-Plasmodium activity (in words) [2]: presented activity
CC50 [1]: 53.7 µM
CC50 ([1]; read-out: CC50 (cytotoxic concentration 50%), Table 1, TZM-bl cells, 48 hours, alamarBlue): 53.7 µM
anti-HIV activity against HIV-1 (in words) [12]: potent activity
MPI (maximum percentage of inhibition) [12, 14]: 99%
TI (in vitro therapeutic index, CC50/IC50) [12, 14]: 161.80
IC50 [12, 14]: 0.332 µM
IC90 [12, 14]: 0.701 µM
MPI (maximum percentage of inhibition) [12, 15]: 97%
TI (in vitro therapeutic index, CC50/IC50) [12, 15]: 82.64
IC50 [12, 15]: 0.65 µM
IC90 [12, 15]: 1.09 µM
anti-HIV activity against HIV-2 (in words) [13]: potent activity
TI (in vitro therapeutic index, CC50/IC50) ([13]; 03PTHCC19, CCR5 tropic HIV-2 isolate): 105.29
IC50 [13, 16]: 0.51 µM
IC90 [13, 16]: 1.18 µM
MPI (maximum percentage of inhibition) ([13]; 03PTHCC19, CCR5 tropic HIV-2 isolate, wa = without antiviral activity): 90%

CC(=O)C1N=NC(c2ccccc2)C12C(=O)N1[C@@H](C(=O)OC(c3ccccc3)c3ccccc3)C(C)(C)S[C@@H]12 (some centres unmarked) [BSS-974S]
CC50 [1]: 91.9 µM
